As usually defined, the Ki is the dissociation constant of the complex between target and ligand, obtained from inhibition or displacement.

Counter-ions that a name gives are not always drawn.

T1 sequence (P33535 whole entry): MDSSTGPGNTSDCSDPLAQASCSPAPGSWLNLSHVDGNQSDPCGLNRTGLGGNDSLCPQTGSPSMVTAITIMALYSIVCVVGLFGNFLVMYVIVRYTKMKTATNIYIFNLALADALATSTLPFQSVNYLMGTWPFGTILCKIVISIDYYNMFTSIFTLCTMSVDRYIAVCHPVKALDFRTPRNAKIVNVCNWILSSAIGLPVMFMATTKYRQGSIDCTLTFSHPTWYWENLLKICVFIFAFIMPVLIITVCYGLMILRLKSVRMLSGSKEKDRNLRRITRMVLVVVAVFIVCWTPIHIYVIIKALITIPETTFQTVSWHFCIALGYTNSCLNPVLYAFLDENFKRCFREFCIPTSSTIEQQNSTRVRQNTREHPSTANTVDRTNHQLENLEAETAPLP

One experiment has as its target T1, μ-opioid receptor (Rattus norvegicus, UniProt P33535).
T1 construct: the forebrains are homogenized in Tris buffer in a Teflon®-glass homogenizer; from tissue; host or cells: forebrain of male Wistar rats (particulate membrane preparation)
Nature of the experiment: Rat brain μ-opioid receptor binding assay ([3H]DAMGO). The settings on record: 10 nM solutions of the compounds, read-out: MOR binding Ki. As for the experimental part: Rat Brain μ-Opioid Receptor Binding Assay
Male, Wistar rats (150-250 g, VAF, Charles River, Kingston, N.Y.) are killed by cervical dislocation and their brains removed and placed immediately in ice cold Tris HCl buffer (50 mM, pH 7.4). The forebrains are separated from the remainder of the brain by a coronal transection, beginning dorsally at the colliculi and passing ventrally through the midbrain-pontine junction. After dissection, the forebrains are homogenized in Tris buffer in a Teflon®-glass homogenizer. The homogenate is diluted to a concentration of 1 g of forebrain tissue per 100 mL Tris buffer and centrifuged at 39,000×G for 10 min. The pellet is resuspended in the same volume of Tris buffer with several brief pulses from a Polytron homogenizer. This particulate preparation is used for the μ-opioid binding assays. […] The tubes and filters are rinsed three times with 4 mL of 10 mM HEPES (pH 7.4) and the radioactivity associated with the filter circles determined using Formula 989 scintillation fluid (New England Nuclear, Boston, Mass.) in a scintillation counter.
The data are used to calculate either the % inhibition compared to control binding (when only a single concentration of test compound is evaluated) or a Ki value (when a range of concentrations is tested).
% Inhibition is calculated as follows: [formula]
Ki value is calculated using the LIGAND (Munson, P. J. and Rodbard, D., Anal. Biochem. 107: 220-239, 1980) data analysis program.
Regarding `CCNC(=O)c1ccc(C(=C2CC3CCC(C2)N3CC=C(C)C)c2cccc(C(=O)O)c2)cc1` (single isomer, unassigned) [Cpd 44], the Ki worked out at 58.3 nM. Same read-out and setting: in the case of `CCNC(=O)c1ccc(C(=C2CC3CCC(C2)N3CC=C(C)C)c2cccc(C(=O)O)c2)cc1` (single isomer, unassigned) [Cpd 45] it was 23.7 nM; in that of `CCNC(=O)c1ccc(C(=C2CC3CCC(C2)N3Cc2ccsc2)c2ccc(CO)cc2)cc1` (single isomer, unassigned) [Cpd 206], 80.1 nM. As to `CCNC(=O)c1ccc(C(=C2CC3CCC(C2)N3Cc2ccsc2)c2ccc3c(c2)OCO3)cc1` [Cpd 7], the Ki came to 3.05 nM. Consider `CCNC(=O)c1ccc(C(=C2CC3CCC(C2)N3Cc2ccoc2)c2ccc3c(c2)OCO3)cc1` [Cpd 10], for which the Ki was 1.06 nM. Take `CCNC(=O)c1ccc(C(=C2CC3CCC(C2)N3Cc2ccc3ccccc3n2)c2ccccn2)cc1` [Cpd 13]: the Ki came out at 123 nM. With `CCNC(=O)c1ccc(C(=C2CC3CCC(C2)N3Cc2ccsc2)c2cnc3ccccc3c2)cc1` [Cpd 15], the Ki was found to be 127 nM. As to `CCNC(=O)c1ccc(C(=C2CC3CCC(C2)N3Cc2ccco2)c2cnc3ccccc3c2)cc1` [Cpd 16], the Ki is 82 nM.

Turning to `CCNC(=O)c1ccc(C(Br)=C2CC3CCC(C2)N3Cc2ccc(NC(C)=O)cc2)cc1` [Cpd 21], the Ki came to 48.2 nM. For the molecule `CCNC(=O)c1ccc(C(Br)=C2CC3CCC(C2)N3Cc2ccsc2)cc1` [Cpd 23], the Ki was found to be 6.23 nM. Consider `CCNC(=O)c1ccc(C(Br)=C2CC3CCC(C2)N3Cc2ccco2)cc1` [Cpd 24], for which the Ki came to 21.7 nM. The same measure, in the same setting: in the case of `CCNC(=O)c1ccc(C(Br)=C2CC3CCC(C2)N3Cc2ccc3ccccc3n2)cc1` [Cpd 25] it was 95 nM. For `CCNC(=O)c1ccc(C(Br)=C2CC3CCC(C2)N3Cc2sccc2C)cc1` [Cpd 28], the Ki was found to be 69.6 nM. On to `CCNC(=O)c1ccc(C=C2CC3CCC(C2)N3Cc2ncc[nH]2)cc1` [Cpd 32], for which the Ki turned out to be 385 nM. In the case of `CCNC(=O)c1ccc(C=C2CC3CCC(C2)N3Cc2ccc3ccccc3n2)cc1` [Cpd 35], the Ki was found to be 532 nM.

For the molecule `CCNC(=O)c1ccc(C=C2CC3CCC(C2)N3Cc2ccoc2)cc1` [Cpd 36], the Ki was 109 nM. Regarding `CCNC(=O)c1ccc(C=C2CC3CCC(C2)N3Cc2sccc2C)cc1` [Cpd 38], the Ki came out at 236 nM. Turning to `CCNC(=O)c1ccc(C(Br)=C2CC3CCC(C2)N3Cc2c[nH]cn2)cc1` [Cpd 39], the Ki stood at 83.7 nM.

Still in this experiment, the particulars now being: MOR binding Ki.
Molecule `CCNC(=O)c1ccc(C=C2C[C@H]3CC[C@@H](C2)N3CCc2ccccc2)cc1` (single isomer, unassigned) [Cpd 41, (+)—N-Ethyl-4-(8-phenethyl-8-aza-bicyclo[3.2.1]oct-3-ylidenemethyl)-benzamide] showed a Ki of 124 nM. As to `CCNC(=O)c1ccc(C=C2C[C@H]3CC[C@@H](C2)N3CCc2ccccc2)cc1` (single isomer, unassigned) [Cpd 42, (−)—N-Ethyl-4-(8-phenethyl-8-aza-bicyclo[3.2.1]oct-3-ylidenemethyl)-benzamide], the Ki was determined as 5.99 nM.

Molecule `CCNC(=O)c1ccc(C(Br)=C2C[C@H]3CC[C@@H](C2)N3)cc1` (single isomer, unassigned) [Cpd 92] gave a Ki of 115 nM. Same read-out and setting: the figure for `CCNC(=O)c1ccc(C(=C2C[C@H]3CC[C@@H](C2)N3Cc2ccsc2)c2ccc(CO)cc2)cc1` (single isomer, unassigned) [Cpd 196, N-Ethyl-4-[(4-hydroxymethyl-phenyl)-(8-thiophen-3-ylmethyl-8-aza-bicyclo[3.2.1]oct-3-ylidene)-methyl]-benzamide] is 4.1 nM.

Take `CCNC(=O)c1ccc(C(=C2CC3CCC(C2)N3)c2nnn[nH]2)cc1` (single isomer, unassigned) [Cpd 201]: the affinity, expressed as Ki, was 12300 nM. On the same count and under the same terms, in the case of `CCNC(=O)c1ccc(C(=C2CC3CCC(C2)N3)c2nnn[nH]2)cc1` (single isomer, unassigned) [Cpd 202] it was 8120 nM; in that of `CCNC(=O)c1ccc(C(=C2CC3CCC(C2)N3Cc2ccco2)c2nnn[nH]2)cc1` (single isomer, unassigned) [Cpd 203], 5450 nM; in that of `CCNC(=O)c1ccc(C(C#N)=C2CC3CCC(C2)N3Cc2ccoc2)cc1` (single isomer, unassigned) [Cpd 209], 2.59 nM.

On to `CCNC(=O)c1ccc(C(C#N)=C2CC3CCC(C2)N3Cc2ccoc2)cc1` (single isomer, unassigned) [Cpd 210], for which the Ki stood at 2.3 nM. For the molecule `CCNC(=O)c1ccc(C(Br)=C2CC3CCC(C2)N3Cc2ccoc2)cc1` (single isomer, unassigned) [Cpd 211], the Ki stood at 0.23 nM. `CCNC(=O)c1ccc(C(Br)=C2CC3CCC(C2)N3Cc2ccoc2)cc1` (single isomer, unassigned) [Cpd 212] registered an inhibition constant Ki of 38.5 nM. For `CCNC(=O)c1ccc(C(=C2CC3CCC(C2)N3Cc2ccsc2)c2cccc(-c3nnn[nH]3)c2)cc1` (single isomer, unassigned) [Cpd 215], the affinity, expressed as Ki, was 3120 nM. In turn, `CCNC(=O)c1ccc(C(=C2CC3CCC(C2)N3Cc2ccsc2)c2cccc(-c3nnn[nH]3)c2)cc1` (single isomer, unassigned) [Cpd 216] yielded a Ki of 12.1 nM. With `CCNC(=O)c1ccc(C(=C2C[C@H]3CC[C@@H](C2)N3C(=O)Cc2ccccc2)c2cccnc2)cc1` (single isomer, unassigned) [Cpd 217], the Ki amounted to 3.07 nM. Molecule `CCNC(=O)c1ccc(C=C2CC3CCC(C2)N3CC(N)Cc2ccccc2)cc1` (stereo not drawn) [Cpd 1, 4-[8-(2-Amino-3-phenyl-propyl)-8-aza-bicyclo[3.2.1]oct-3-ylidenemethyl]-N-ethyl-benzamide Hydrochloride] showed a Ki of 340 nM. The same measure, in the same setting: the figure for `CCNC(=O)c1ccc(C(=C2CC3CCC(C2)N3Cc2ccc3ccccc3n2)c2cccc(F)c2)cc1` [Cpd 3] is 74.1 nM. Molecule `CCNC(=O)c1ccc(C(=C2CC3CCC(C2)N3Cc2ccc(NC(C)=O)cc2)c2ccc3c(c2)OCO3)cc1` [Cpd 5] registered a Ki of 73 nM. Turning to `CCNC(=O)c1ccc(C(=C2CC3CCC(C2)N3Cc2ncc[nH]2)c2ccc3c(c2)OCO3)cc1` [Cpd 6], the Ki turned out to be 35.8 nM. Still for that read-out and setting: the figure for `CCNC(=O)c1ccc(C(=C2CC3CCC(C2)N3Cc2ccco2)c2ccc3c(c2)OCO3)cc1` [Cpd 8] is 7.41 nM; for `CCNC(=O)c1ccc(C(=C2CC3CCC(C2)N3Cc2ccc3ccccc3n2)c2ccc3c(c2)OCO3)cc1` [Cpd 9] it is 34.1 nM.

In turn, `CCNC(=O)c1ccc(C(=C2CC3CCC(C2)N3Cc2[nH]cnc2C)c2ccc3c(c2)OCO3)cc1` [Cpd 11] showed a Ki of 46.2 nM.

In the case of `CCNC(=O)c1ccc(C(=C2CC3CCC(C2)N3Cc2sccc2C)c2ccc3c(c2)OCO3)cc1` [Cpd 12], the affinity corresponds to a Ki of 128 nM.

In turn, `CCNC(=O)c1ccc(C(=C2CC3CCC(C2)N3Cc2ccc(NC(C)=O)cc2)c2cnc3ccccc3c2)cc1` [Cpd 14] yielded a Ki of 959 nM. The molecule `CCNC(=O)c1ccc(C(=C2CC3CCC(C2)N3Cc2ccoc2)c2cnc3ccccc3c2)cc1` [Cpd 17] returned a Ki of 20.3 nM. The molecule `CCNC(=O)c1ccc(C(=C2CC3CCC(C2)N3Cc2sccc2C)c2cnc3ccccc3c2)cc1` [Cpd 18] came in with a Ki of 561 nM. The molecule `CCNC(=O)c1ccc(C(=C2CC3CCC(C2)N3Cc2ccc3ccccc3n2)c2cccc(C#N)c2)cc1` [Cpd 20] registered a Ki of 129 nM.

Molecule `CCNC(=O)c1ccc(C(Br)=C2CC3CCC(C2)N3Cc2ncc[nH]2)cc1` [Cpd 22] came in with a Ki of 58.5 nM. On the same count and under the same terms, in the case of `CCNC(=O)c1ccc(C(Br)=C2CC3CCC(C2)N3Cc2ccoc2)cc1` [Cpd 26] it was 1.86 nM; in that of `CCNC(=O)c1ccc(C(Br)=C2CC3CCC(C2)N3Cc2[nH]cnc2C)cc1` [Cpd 27], 99.8 nM. The molecule `CCNC(=O)c1ccc(C(=C2CC3CCC(C2)N3Cc2ccc3ccccc3n2)c2cnccn2)cc1` [Cpd 30] showed an inhibitory constant (Ki) of 15 nM.

The molecule `CCNC(=O)c1ccc(C=C2CC3CCC(C2)N3Cc2ccc(NC(C)=O)cc2)cc1` [Cpd 31] displayed a Ki of 25.6 nM. In the case of `CCNC(=O)c1ccc(C=C2CC3CCC(C2)N3Cc2ccsc2)cc1` [Cpd 33], affinity was put at a Ki of 198 nM. `CCNC(=O)c1ccc(C=C2CC3CCC(C2)N3Cc2ccco2)cc1` [Cpd 34] came in with an inhibition constant (Ki) of 1420 nM. `CCNC(=O)c1ccc(C=C2CC3CCC(C2)N3Cc2[nH]cnc2C)cc1` [Cpd 37] gave a Ki of 1470 nM. The same measure, in the same setting: in the case of `CCNC(=O)c1ccc(C(Br)=C2CC3CCC(C2)N3Cc2cccs2)cc1` [Cpd 40] it was 8.97 nM; in that of `CCNC(=O)c1ccc(C(=C2CC3CCC(C2)N3CC#N)c2ccccc2)cc1` [Cpd 43, 4-[(8-Cyanomethyl-8-aza-bicyclo[3.2.1]oct-3-ylidene)-phenyl-methyl]-N-ethyl-benzamide], 721 nM.

On to `CCNC(=O)c1ccc(C=C2CC3CCC(C2)N3Cc2c[nH]cn2)cc1` [Cpd 46], for which affinity was put at a Ki of 5480 nM.

Regarding `CCNC(=O)c1ccc(C(=C2CC3CCC(C2)N3CC=C(C)C)c2cccc(C(=O)O)c2)cc1` [Cpd 47, 3{(4-Ethylcarbamoyl-phenyl)-[8-(3-methyl-but-2-enyl)-8-aza-bicyclo[3.2.1]oct-3-ylidene]-methyl}-benzoic acid], the Ki is 125 nM. `CCN(CC)C(=O)c1ccc(C=C2CC3CCC(C2)N3)cc1` [Cpd 48, 4-(8-Aza-bicyclo[3.2.1]oct-3-ylidenemethyl)-N,N-diethylbenzamide] came in with a Ki of 25800 nM.

Values taken from US20050004163A1, “3-(diarylmethylene)-8-azabicyclo[3.2.1]octane derivatives” (priority 2000, published 2005).
